Data published in patent US20160310519A1, “MODIFIED G-QUADRUPLEX NANOPARTICLES” (NANYANG TECHNOLOGICAL UNIVERSITY, priority 2013, published 2016).

What was measured:
[1] = CD melting experiments of multiple N2-modified G-quadruplexes in low salt; assay type: physicochemical; conditions: low salt (1 mM KPi+1 mM KCl), CD at 290 nm
Method: CD melting experiments were performed for the unmodified sequence and for sequences containing multiple N2-modifications. Samples contained 4-5 μM DNA by strand concentration in 1 mM KCl and 1 mM KPi. Samples were heated to 95° C. (98° C. for N2-Ball-with-Hair sample) and cooled to 15° C. at a rate of 0.2° C./min. Samples were then heated in a similar manner. Data was recorded every 0.5° C. at 290 nm and corrected by subtraction at 320 nm. Normalized melting curves are used to determine the melting temperature (Tm) of modified sequences, which is taken as an average of the heating and cooling curves.
The designed sequences were tested in a “low salt” solution of 1 mM KPi+1 mM KCl. Of the sequences tested with multiple modifications, SEQ ID Nos. 38, 39, 41 and 42 were determined to maintain the (3+1) conformation by analysis of ^1H NMR and CD spectra, which were highly similar to SEQ ID NO:1 (FIG. 4).
Additionally, these changes in stability were roughly equivalent to the sum of stability changes observed for the individual single-position substitutions.

[2] = Temperature dependent CD spectra under physiological salt conditions; assay type: physicochemical
Method: Spectra were recorded on a JASCO-815 spectropolarimeter (Tokyo, Japan). Samples contained a DNA strand concentration of 4-5 μM. […] Spectra were normalized through subtracting by the CD absorbance at 320 nm and dividing by concentration of the sample determined by concurrent UV absorption measurements. Samples were annealed prior to recording of CD spectra by heating to 100° C. and allowed to cool slowly at room temperature.
The stability of the “Ball with Hair” structure formed by SEQ ID NO:42 under “physiological salt” conditions (10 mM Kpi+130 mM KCL) was similar to those experienced in a cellular environment. NMR spectra of SEQ ID NO:42 under physiological salt conditions matched the spectra recorded in low salt conditions.

Substance | Δ Tm [1] | melting temperature [1] | Δ Tm ([1]; listed as ball with hair) | melting temperature ([2]; physiological K+ conditions (10 mM KPi+130 mM KCl)) | CD signal intensity observed at 95° C. ([2]; physiological salt (10 mM KPi+130 mM KCl), 95° C.)
SEQ ID NO:39: contains two ^MetG substitutions of guanines that neighbors within the wide groove (TTGGGTTAGNNTTAGGGTTAGGGA; two N2-methyl guanine modifications, chemistry not fully specified) | +18.2 °C | – | – | – | –
SEQ ID NO:41: designed to contain a modification in each groove of the G-quadruplex nanoparticle (TTNGGTTANGNTTANGGTTAGGGA; DNA, backbone and the base at N not given here; N2-modified guanines at marked positions) | +26.6 °C | – | – | – | –
SEQ ID NO:43: contains a variety of 8 N2-modifications aimed to maximize the thermal stability (TTNGGTTANGNTTANGNTTANGNA; DNA, backbone and the base at N not given here; further chemistry not fully specified) | +35.6 °C | – | – | – | –
SEQ ID NO:38: contains two ^HexG substitutions into separate grooves in positions that were highly stabilizing in the single-substitutions studies (TTNGGTTANGGTTAGGGTTAGGGA; two N2-hexyl guanine modifications, chemistry not fully specified) | +6.9 °C | – | – | – | –
SEQ ID NO:42: containing eight ^HexG modifications towards the design of a "Ball with Hair" type of nanoparticle (TTNNGTTANGNTTANGNTTAGNNA; eight N2-hexyl guanine modifications, chemistry not fully specified) | +46.2 °C | 91.7 °C | 46 °C | > 95 °C | more than 80%
